Structures are written as SMILES.

Assay [1] relates to Lolium multiflorum. As to the kind of experiment: Induction of ammonia accumulation in glufosinate-susceptible Lolium multiflorum C1 (Italian ryegrass) seedlings at 3-leaf stage assessed as ammonia level per gram of leaves fresh weight at 0.4 kg Ai/ha measured 96 hr after compound treatment under greenhouse conditions (reference value: 11.04 +/- 0.89 ug/g of leaves fresh weight). In kind it is functional.

Assay [2] relates to Lolium multiflorum. The assay is described as follows: Induction of ammonia accumulation in glufosinate-susceptible Lolium multiflorum C1 (Italian ryegrass) seedlings at 3-leaf stage assessed as ammonia level per gram of leaves fresh weight at 0.4 kg Ai/ha measured 72 hr after compound treatment under greenhouse conditions (reference value: 11.04 +/- 0.89 ug/g of leaves fresh weight). In kind it is functional.

In assay [3] the test system is Lolium multiflorum. As to the kind of experiment: Induction of ammonia accumulation in glufosinate-susceptible Lolium multiflorum C1 (Italian ryegrass) seedlings at 3-leaf stage assessed as ammonia level per gram of leaves fresh weight at 0.4 kg Ai/ha measured 48 hr after compound treatment under greenhouse conditions (reference value: 11.04 +/- 0.89 ug/g of leaves fresh weight). In kind it is functional.

Assay [4] concerns Lolium multiflorum. As to the kind of experiment: Resistance index, ratio of GR50 for glufosinate-resistant Lolium multiflorum MG (Italian ryegrass) expressing one amino acid substitution in plastidic GS2 gene aspartic acid for asparagine at position 171 to GR50 for glufosinate-susceptible Lolium multiflorum (Italian ryegrass)C2. In kind it is functional.
Assay [5] relates to Lolium multiflorum. As to the kind of experiment: Resistance index, ratio of GR50 for glufosinate-resistant Lolium multiflorum MG (Italian ryegrass) expressing one amino acid substitution in plastidic GS2 gene aspartic acid for asparagine at position 171 to GR50 for glufosinate-susceptible Lolium multiflorum (Italian ryegrass)C1. Type of assay: functional.
In assay [6] the test system is Lolium multiflorum. As to the kind of experiment: Herbicidal activity against glufosinate-resistant Lolium multiflorum MG (Italian ryegrass) expressing one amino acid substitution in plastidic GS2 gene aspartic acid for asparagine at position 171 assessed as reduction above-ground dry weight measured after 15 days post compound treatment under greenhouse conditions. Type of assay: functional.

Assay [7] concerns Lolium multiflorum. The assay is described as follows: Herbicidal activity against glufosinate-susceptible Lolium multiflorum C2 (Italian ryegrass) assessed as reduction above-ground dry weight measured after 15 days post compound treatment under greenhouse conditions. In kind it is functional.
Assay [8] concerns Lolium multiflorum. The assay is described as follows: Induction of ammonia accumulation in glufosinate-susceptible Lolium multiflorum (Italian ryegrass) seedlings at three-leaf stage assessed as ammonia level per gram of leaves fresh weight at 0.4 kg Ai/ha measured 24 hr after compound treatment under greenhouse conditions (reference value: 11.04 +/- 0.89 ug/g of leaves fresh weight). In kind it is functional, C1.

The test system of assay [9] is Lolium multiflorum. The assay is described as follows: Herbicidal activity against glufosinate-susceptible Lolium multiflorum C1 (Italian ryegrass) assessed as reduction above-ground dry weight measured after 15 days post compound treatment under greenhouse conditions. In kind it is functional.
In assay [10] the test system is Lolium multiflorum. As to the kind of experiment: Induction of ammonia accumulation in glufosinate-susceptible Lolium multiflorum C2 (Italian ryegrass) seedlings at 3-leaf stage assessed as ammonia level per gram of leaves fresh weight at 0.4 kg Ai/ha measured 24 hr after compound treatment under greenhouse conditions (reference value: 14.79 +/- 4.09 ug/g of leaves fresh weight). In kind it is functional.

The target of assay [11] is T1, Glutamine synthetase (Lolium perenne, UniProt C5IW59).
T1 sequence (C5IW59 whole entry): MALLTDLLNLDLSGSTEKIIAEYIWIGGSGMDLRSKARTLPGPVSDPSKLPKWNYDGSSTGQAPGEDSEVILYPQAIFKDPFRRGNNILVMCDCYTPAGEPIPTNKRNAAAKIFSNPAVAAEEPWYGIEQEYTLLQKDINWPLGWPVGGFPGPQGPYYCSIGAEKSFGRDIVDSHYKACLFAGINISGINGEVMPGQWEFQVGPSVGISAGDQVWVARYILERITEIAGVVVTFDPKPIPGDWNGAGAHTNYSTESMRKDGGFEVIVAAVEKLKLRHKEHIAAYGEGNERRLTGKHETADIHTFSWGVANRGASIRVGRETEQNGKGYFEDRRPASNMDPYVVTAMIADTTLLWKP
The assay is described as follows: Inhibition of glutamine synthetase in glufosinate-resistant Lolium multiflorum MG (Italian ryegrass) seedlings. Conditions: read-out: I50.

In assay [12] the target is T1, Glutamine synthetase. The assay is described as follows: Inhibition of glutamine synthetase in glufosinate-susceptible Lolium multiflorum C2 (Italian ryegrass) seedlings. Conditions: read-out: I50.
The target in assay [13] is T1, Glutamine synthetase. As to the kind of experiment: Inhibition of glutamine synthetase in glufosinate-susceptible Lolium multiflorum C1 (Italian ryegrass) seedlings. Conditions: read-out: I50.
For assay [14], the system named is Lolium multiflorum. The assay is described as follows: Induction of ammonia accumulation in glufosinate-resistant Lolium multiflorum MG (Italian ryegrass) seedlings at 3-leaf stage assessed as ammonia level per gram of leaves fresh weight at 0.4 kg Ai/ha measured 96 hr after compound treatment under greenhouse conditions (reference value: 12.41 +/- 0.97 ug/g of leaves fresh weight). Type of assay: functional.

Assay [15] has as its system Lolium multiflorum. As to the kind of experiment: Induction of ammonia accumulation in glufosinate-resistant Lolium multiflorum MG (Italian ryegrass) seedlings at 3-leaf stage assessed as ammonia level per gram of leaves fresh weight at 0.4 kg Ai/ha measured 72 hr after compound treatment under greenhouse conditions (reference value: 12.41 +/- 0.97 ug/g of leaves fresh weight). Type of assay: functional.

The test system of assay [16] is Lolium multiflorum. The assay is described as follows: Induction of ammonia accumulation in glufosinate-resistant Lolium multiflorum MG (Italian ryegrass) seedlings at 3-leaf stage assessed as ammonia level per gram of leaves fresh weight at 0.4 kg Ai/ha measured 48 hr after compound treatment under greenhouse conditions (reference value: 12.41 +/- 0.97 ug/g of leaves fresh weight). Type of assay: functional.

In assay [17] the test system is Lolium multiflorum. As to the kind of experiment: Induction of ammonia accumulation in glufosinate-resistant Lolium multiflorum MG (Italian ryegrass) seedlings at 3-leaf stage assessed as ammonia level per gram of leaves fresh weight at 0.4 kg Ai/ha measured 24 hr after compound treatment under greenhouse conditions (reference value: 12.41 +/- 0.97 ug/g of leaves fresh weight). In kind it is functional.

Assay [18] deals with Lolium multiflorum. As to the kind of experiment: Induction of ammonia accumulation in glufosinate-susceptible Lolium multiflorum C2 (Italian ryegrass) seedlings at 3-leaf stage assessed as ammonia level per gram of leaves fresh weight at 0.4 kg Ai/ha measured 96 hr after compound treatment under greenhouse conditions (reference value: 14.79 +/- 4.09 ug/g of leaves fresh weight). In kind it is functional.

In assay [19] the test system is Lolium multiflorum. As to the kind of experiment: Induction of ammonia accumulation in glufosinate-susceptible Lolium multiflorum C2 (Italian ryegrass) seedlings at 3-leaf stage assessed as ammonia level per gram of leaves fresh weight at 0.4 kg Ai/ha measured 72 hr after compound treatment under greenhouse conditions (reference value: 14.79 +/- 4.09 ug/g of leaves fresh weight). In kind it is functional.

Assay [20] has as its system Lolium multiflorum. The assay is described as follows: Induction of ammonia accumulation in glufosinate-susceptible Lolium multiflorum C2 (Italian ryegrass) seedlings at 3-leaf stage assessed as ammonia level per gram of leaves fresh weight at 0.4 kg Ai/ha measured 48 hr after compound treatment under greenhouse conditions (reference value: 14.79 +/- 4.09 ug/g of leaves fresh weight). In kind it is functional.

`CP(=O)(O)CCC(N)C(=O)O` (stereo not given) [GLUFOSINATE]: the Activity in assay [1] worked out at 428 µg/g; in [2], 332 µg/g; in [3] it was 304 µg/g; in assay [8], 225 µg/g; in assay [10], 244 µg/g; in [14] it was 256 µg/g. For the same compound, the Activity in [15] is 212 µg/g; in [16], 187 µg/g; in [17], 165 µg/g; in [18], 384 µg/g; in assay [19], 353 µg/g; in [20], 320 µg/g. Moreover, the Ratio in assay [4] and in assay [5] was 2.8 each time. Moreover, the GR50 in [6] is 0.45 KgAi/ha; in [7], 0.18 KgAi/ha; in [9] it was 0.15 KgAi/ha. Besides, the IC50 in assay [11] stood at 2430 µM; in assay [12], 137 µM; in assay [13] it was 31 µM.

The record behind these values is ChEMBL document CHEMBL3044806, “Target-site mutation associated with glufosinate resistance in Italian ryegrass (Lolium perenne L. ssp. multiflorum)” (Pest Manag Sci, 2012).
